Source: patent US20190010139A1 (priority 2015, published 2019)
Read-outs that look alike come from different tables or passages of the source.

System: NL-RLuc virus
Assay: Inhibition of HIV replication (NL-RLuc luciferase reporter virus in MT-2 cells)
Assay type: cell-based
Conditions: Human immunodeficiency virus 1, MT2, 120 h
Description: Inhibition of HIV Replication:
A recombinant NL-RLuc proviral clone was constructed in which a section of the nef gene from NL4-3 was replaced with the Renilla Luciferase gene. This virus is fully infectious and can undergo multiple cycles of replication in cell culture. In addition, the luciferous reporter provides a simple and easy method for quantitating the extent of virus growth and consequently, the antiviral activity of test compounds. The plasmid pNLRLuc contains the proviral NL-Rluc DNA cloned into pUC 18 at the PvuII site. The NL-RLuc virus was prepared by transfection of 293T cells with the plasmid pNLRLuc. Transfections were performed using the LipofectAMINE PLUS kit from Invitrogen (Carlsbad, Calif.) according to the manufacturer and the virus generated was titered in MT-2 cells. For susceptibility analyses, the titrated virus was used to infect MT-2 cells in the presence of compound, and after 5 days of incubation, cells were processed and quantitated for virus growth by the amount of expressed luciferase. Assay media was RPMI 1640 supplemented with 10% heat inactivated fetal bovine serum (FBS), 100 units/ml penicillin G/100 units/ml streptomycin, 10 mM HEPES buffer pH 7.55 and 2 mM L-glutamine. The results from at least 2 experiments were used to calculate the EC50 values. Luciferase was quantitated using the Dual Luciferase kit from Promega (Madison, Wis.). Susceptibility of viruses to compounds was determined by incubation in the presence of serial dilutions of the compound. The 50% effective concentration (EC50) was calculated by using the exponential form of the median effect equation where (Fa)=1/[1+(ED50/drug conc.)^m](Johnson V A, Byington R T. Infectivity Assay. In Techniques in HIV Research. ed. Aldovini A, Walker B D. 71-76. New York: Stockton Press.1990). Activity equal to A refers to a compound having an EC50≤100 nM, while B and C denote compounds having an EC50 between 100 nM and 1 uM (B) or >1 uM (C).

Row | Structure (SMILES) | EC50 (read-out: Activity) [µM] | EC50 (read-out: EC50 μM) [µM]
1 | Cc1nc(C)c([C@H](OC(C)(C)C)C(=O)O)c(N2CC3CCCC3C2)c1-c1ccc(C(=O)NCc2ccccc2)cc1 (stereo partly drawn) [Example 4, (2S)-2-(5-(4-(Benzylcarbamoyl)phenyl)-4-(hexahydrocyclopenta[c]pyrrol-2(1H)-yl)-2,6-dimethylpyridin-3-yl)-2-(tert-butoxy)acetic acid] | < 0.1 | –
2 | Cc1cccc(F)c1CN1CCc2cc(-c3c(C)nc(C)c([C@H](OC(C)(C)C)C(=O)O)c3N3CCC4(CCC4)CC3)ccc2C1 [Example 34, (S)-2-(tert-Butoxy)-2-(5-(2-(2-fluoro-6-methylbenzyl)-1,2,3,4-tetrahydroisoquinolin-6-yl)-2,6-dimethyl-4-(7-azaspiro[3.5]nonan-7-yl)pyridin-3-yl)acetic acid] | < 0.1 | –
3 | Cc1nc(C)c([C@H](OC(C)(C)C)C(=O)O)c(N2CCC3(CCC3)CC2)c1-c1ccc(C(=O)NCc2ccccc2)cc1 [Example 29, (S)-2-(5-(4-(Benzylcarbamoyl)phenyl)-2,6-dimethyl-4-(7-azaspiro[3.5]nonan-7-yl)pyridin-3-yl)-2-(tert-butoxy)acetic acid] | < 0.1 | 0.007
4 | Cc1nc(COC2COC2)c(-c2ccc(OCCc3ccc(F)cc3)cc2)c(N2CCC3(CCC3)CC2)c1[C@H](OC(C)(C)C)C(=O)O [Example 58, (S)-2-(tert-Butoxy)-2-(5-(4-(4-fluorophenethoxy)phenyl)-2-methyl-6-((oxetan-3-yloxy)methyl)-4-(7-azaspiro[3.5]nonan-7-yl)pyridin-3-yl)acetic acid] | < 0.1 | –
5 | Cc1nc(C)c([C@H](OC(C)(C)C)C(=O)O)c(N2CCC3(CCCC3)CC2)c1-c1ccc(OCC(C)(C)c2ccc(F)cc2)cc1 [Example 22, (S)-2-(tert-Butoxy)-2-(5-(4-(2-(4-fluorophenyl)-2-methylpropoxy)phenyl)-2,6-dimethyl-4-(8-azaspiro[4.5]decan-8-yl)pyridin-3-yl)acetic acid] | < 0.1 | 0.026
6 | COc1cc(-c2c(C)nc(C)c([C@H](OC(C)(C)C)C(=O)O)c2N2CCC3(CCC3)CC2)ccc1C(=O)NCc1ccccc1 [Example 32, (S)-2-(5-(4-(Benzylcarbamoyl)-3-methoxyphenyl)-2,6-dimethyl-4-(7-azaspiro[3.5]nonan-7-yl)pyridin-3-yl)-2-(tert-butoxy)acetic acid] | < 0.1 | –
7 | Cc1nc(C)c([C@H](OC(C)(C)C)C(=O)O)c(N2CCC3(CCCCCC3)C2)c1-c1ccc(C(=O)NCc2ccccc2)cc1 [Example 65, (S)-2-(5-(4-(Benzylcarbamoyl)phenyl)-2,6-dimethyl-4-(2-azaspiro[4.6]undecan-2-yl)pyridin-3-yl)-2-(tert-butoxy) acetic acid] | < 0.1 | –
8 | Cc1nc(C)c([C@H](OC(C)(C)C)C(=O)O)c(N2CCC3(CCC3)CC2)c1-c1ccc2c(c1)CCN(Cc1ccccc1F)C2 [Example 33, (S)-2-(tert-Butoxy)-2-(5-(2-(2-fluorobenzyl)-1,2,3,4-tetrahydroisoquinolin-6-yl)-2,6-dimethyl-4-(7-azaspiro[3.5]nonan-7-yl)pyridin-3-yl)acetic acid] | < 0.1 | –
9 | Cc1ccc(CN2CCc3cc(-c4c(C)nc(C)c([C@H](OC(C)(C)C)C(=O)O)c4N4CCC5(CCC5)CC4)ccc3C2)c(F)c1 [Example 37, (S)-2-(tert-Butoxy)-2-(5-(2-(2-fluoro-4-methylbenzyl)-1,2,3,4-tetrahydroisoquinolin-6-yl)-2,6-dimethyl-4-(7-azaspiro[3.5]nonan-7-yl)pyridin-3-yl)acetic acid] | < 0.1 | –
10 | Cc1nc(C)c([C@H](OC(C)(C)C)C(=O)O)c(N2CC3CCC(C)(C2)C3(C)C)c1-c1ccc(C(=O)NCc2ccccc2)cc1 (stereo partly drawn) [Example 5, (S)-2-(5-(4-(Benzylcarbamoyl)phenyl)-2,6-dimethyl-4-(1,8,8-trimethyl-3-azabicyclo[3.2.1]octan-3-yl)pyridin-3-yl)-2-(tert-butoxy)acetic acid] | < 0.1 | –
11 | COCCN(C)Cc1nc(C)c([C@H](OC(C)(C)C)C(=O)O)c(N2CCC3(CCC3)CC2)c1-c1ccc(OCCc2ccc(F)cc2)cc1 [Example 43, (S)-2-(tert-Butoxy)-2-(5-(4-(4-fluorophenethoxy)phenyl)-6-(((2-methoxyethyl)(methyl)amino)methyl)-2-methyl-4-(7-azaspiro[3.5]nonan-7-yl)pyridin-3-yl)acetic acid] | < 0.1 | –
12 | Cc1nc(C)c([C@H](OC(C)(C)C)C(=O)O)c(N2CCC3(CC2)CC3(F)F)c1-c1ccc(C(=O)NCc2ccccc2)cc1 [Example 71, (S)-2-(5-(4-(Benzylcarbamoyl)phenyl)-4-(1,1-difluoro-6-azaspiro[2.5]octan-6-yl)-2,6-dimethylpyridin-3-yl)-2-(tert-butoxy)acetic acid] | < 0.1 | 0.018
13 | Cc1nc(C)c([C@H](OC(C)(C)C)C(=O)O)c(N2CCC3(CCNC3)CC2)c1-c1ccc(OCCc2ccc(F)cc2)cc1 [Example 68, (S)-2-(tert-Butoxy)-2-(5-(4-(4-fluorophenethoxy)phenyl)-2,6-dimethyl-4-(2,8-diazaspiro[4.5]decan-8-yl)pyridin-3-yl)acetic acid] | 0.1 to 1 | 0.731
14 | Cc1nc(C)c([C@H](OC(C)(C)C)C(=O)O)c(N2CCC3(CCCC3)CC2)c1-c1ccc2c(c1)CCN(Cc1ccccc1F)C2 [Example 26, (S)-2-(tert-Butoxy)-2-(5-(2-(2-fluorobenzyl)-1,2,3,4-tetrahydroisoquinolin-6-yl)-2,6-dimethyl-4-(8-azaspiro[4.5]decan-8-yl)pyridin-3-yl)acetic acid] | < 0.1 | –
15 | Cc1nc(CN(C)CC2CCOCC2)c(-c2ccc(OCCc3ccc(F)cc3)cc2)c(N2CCC3(CCC3)CC2)c1[C@H](OC(C)(C)C)C(=O)O [Example 46, (S)-2-(tert-Butoxy)-2-(5-(4-(4-fluorophenethoxy)phenyl)-2-methyl-6-((methyl((tetrahydro-2H-pyran-4-yl)methyl)amino)methyl)-4-(7-azaspiro[3.5]nonan-7-yl)pyridin-3-yl)acetic acid] | < 0.1 | –
16 | Cc1nc(COCC2CCOCC2)c(-c2ccc(OCCc3ccc(F)cc3)cc2)c(N2CCC3(CCC3)CC2)c1[C@H](OC(C)(C)C)C(=O)O [Example 51, (S)-2-(tert-Butoxy)-2-(5-(4-(4-fluorophenethoxy)phenyl)-2-methyl-4-(7-azaspiro[3.5]nonan-7-yl)-6-(((tetrahydro-2H-pyran-4-yl)methoxy)methyl)pyridin-3-yl)acetic acid] | < 0.1 | –
17 | Cc1nc(C)c([C@H](OC(C)(C)C)C(=O)O)c(N2CCC3(CCCO3)CC2)c1-c1ccc(OCCc2ccc(F)cc2)cc1 [Example 66, (S)-2-(tert-Butoxy)-2-(5-(4-(4-fluorophenethoxy)phenyl)-2,6-dimethyl-4-(1-oxa-8-azaspiro[4.5]decan-8-yl)pyridin-3-yl)acetic acid] | < 0.1 | –
18 | Cc1nc(C)c([C@H](OC(C)(C)C)C(=O)O)c(N2CC3CCC2C3)c1-c1ccc(C(=O)NCc2ccccc2)cc1 (stereo partly drawn) [Example 1, (S)-2-(5-(4-(Benzylcarbamoyl)phenyl)-4-(2-azabicyclo[2.2.1]heptan-2-yl)-2,6-dimethylpyridin-3-yl)-2-(tert-butoxy)acetic acid] | 0.1 to 1 | 0.446
19 | Cc1nc(C)c([C@H](OC(C)(C)C)C(=O)O)c(N2CC[C@H]3CCCC[C@@H]3C2)c1-c1ccc(C(=O)NCc2ccccc2)cc1 [Example 13, (S)-2-(5-(4-(Benzylcarbamoyl)phenyl)-2,6-dimethyl-4-((4aR,8aS)-octahydroisoquinolin-2(1H)-yl)pyridin-3-yl)-2-(tert-butoxy)acetic acid] | < 0.1 | –
20 | Cc1nc(C)c([C@H](OC(C)(C)C)C(=O)O)c(N2CC3CC3C2)c1-c1ccc(C(=O)NCc2ccccc2)cc1 (stereo partly drawn) [Example 7, (2S)-2-(5-(4-(Benzylcarbamoyl)phenyl)-4-(3-azabicyclo[3.1.0]hexan-3-yl)-2,6-dimethylpyridin-3-yl)-2-(tert-butoxy)acetic acid] | 0.1 to 1 | 0.651
21 | Cc1nc(C)c([C@H](OC(C)(C)C)C(=O)O)c(N2CCC3(CCCC3)C2)c1-c1ccc(OCCc2ccc(F)cc2)cc1 [Example 14, (S)-2-(tert-Butoxy)-2-(5-(4-(4-fluorophenethoxy)phenyl)-2,6-dimethyl-4-(2-azaspiro[4.4]nonan-2-yl)pyridin-3-yl)acetic acid] | < 0.1 | –
22 | Cc1nc(C)c([C@H](OC(C)(C)C)C(=O)O)c(N2CC3C(C2)C3(C)C)c1-c1ccc(C(=O)NCc2ccccc2)cc1 (stereo partly drawn) [Example 9, (2S)-2-(5-(4-(Benzylcarbamoyl)phenyl)-4-(6,6-dimethyl-3-azabicyclo[3.1.0]hexan-3-yl)-2,6-dimethylpyridin-3-yl)-2-(tert-butoxy)acetic acid] | < 0.1 | 0.083
23 | Cc1nc(C)c([C@H](OC(C)(C)C)C(=O)O)c(N2CCCC3(CCCC3)C2)c1-c1ccc(C(=O)NCc2ccccc2)cc1 [Example 19, (S)-2-(5-(4-(Benzylcarbamoyl)phenyl)-2,6-dimethyl-4-(7-azaspiro[4.5]decan-7-yl)pyridin-3-yl)-2-(tert-butoxy)acetic acid] | 0.1 to 1 | –
